# Assay results reported in patent publication US5422339A, “Peptides having insulin autoantibody but not insulin receptor binding capacity” (Joslin Diabetes Center, Inc., priority 1994, dated 1995).
# Entries after “also recorded” stand apart in the source; their conditions may differ. No end group written: not given here.
# Tested on: human insulin autoantibodies
# Test: Competition with 125I-human insulin for binding to human insulin autoantibodies (competitive binding radioassay)
# Details: for affinity / recognition by human insulin autoantibodies: Type I diabetes-associated autoantibodies, relative to human insulin
# Method: Insulin autoantibodies isolated from sera of well-characterized first-degree relatives of patients with Type I diabetes mellitus were analyzed in comparative studies by competition with a series of insulins from different species and with insulin analogues. Insulin binding activity was detected using a competitive binding radioassay and expressed in nU of insulin precipitated per ml of sera (1 nU/ml=7.18 fmole/L).
Substance,affinity / recognition by human insulin autoantibodies,competition with 125I-human insulin for binding to human insulin autoantibodies (autoantibodies isolated from sera of first-degree relatives of Type I diabetes patients),potency in binding to insulin autoantibodies relative to human insulin
"Guinea pig insulin: guinea pig insulin; differs from human insulin at 18 positions (Insulin B chain FVSRHLCGSNLVETLYSVCQDDGFFYIPKD; Insulin A chain GIVDQCCTGTCTRHQLQSYCN; ends and bridges not checked; cysteine pairing not given here; UniProt P01329 25-54; P01329 90-110, looked up)",essentially not recognized; also recorded: reduced,failed to compete,
human proinsulin,,,at least as potent as human insulin
ovine insulins: ovine insulin; differs from human by three amino acids,high-affinity recognition; also recorded: minimal reduction,,
